The subject of test [1] is ACoAT promoter-β-galactosidase reporter gene in yeast strain MEY133::pACoAT (sterol biosynthesis). Briefly: Reporter gene (β-galactosidase) induction assay in reporter yeast strain. Type of test: cell-based, S. cerevisiae. The settings on record: for concentration above which reporter gene activity is induced: 24 hours at 30° C.; for reporter gene induction per cell: relative to basal. Here is the method:
Reporter gene induction is defined as:
where f refers to a final reading, and i to an initial reading. 100 to a concentration of 100 μg/ml and 10 to a concentration of 10 ng/ml. Reporter gene induction per cell is defined as: […]
(§1) Reporter gene activity assays (β-galactosidase assays) were performed using a single step procedure with the substrate chlorophenol red-β-D-galactopyranoside (CPRG, Boehringer): this substrate gives rise to a red product when cleaved by β-galactosidase. The appearance of this product can assessed by monitoring the optical density at 570 nm (OD570). The assays were performed in the wells of microtitre plates containing 200 μi of yeast in uracil-deficient medium. 50 μl of reaction mix was added to these wells, and immediately after this the absorption at 570 nm was measured using a Molecular Devices plate reader. Reaction mix was prepared as follows. 10×Z buffer (Ausabel et al) was prepared by dissolving 85.2 g Na2HPO4, 62.4 g NaH2PO4.2H2O, 7.5 g KCl and 2.46 g MgSO4.7H2O in 500 mls water. 2.7 mls β-mercaptoethanol was added to this solution and mixed. The pH was adjusted to pH 7 using 5M NaOH and the volume made up to 1 litre with water. 200 mls of reaction buffer was made by mixing 100 mls 10×Z buffer, 1.0 ml of 20% (w/v) sodium docedyl sulphate, 10 mls 50 mM CPRG and 89 mls water. After 2 hours a final OD570 reading was taken. Over this time frame, using the yeast strains descibed below, the rate of change of OD570 was constant. Therefore OD570final minus OD570 initial is taken as a measure of total reporter gene activity. OD570 initial is taken as a measurement of the number of cells in the culture, and reporter gene activity per cell is calculated as […].
Maximal induction of reporter gene activity by terbinafine in MEY133::pACoAT was obtained by:
(1) thawing a 1 ml aliquot of frozen stock and adding it to 100 ml of uracil deficient medium in a 500 ml conical flask and incubating for 24 hours at 30° C. with agitation to aerate the culture.
(2) diluting a sample of this culture with uracil deficient medium to give 100 mls of a culture with an optical density at 600 nm of 1.0 units, and incubating this culture for a further 24 hours in an incubator at 30° C. with agitation.
(§2) (3) diluting a sample of this culture with uracil deficient medium to give a culture with an optical density at 600 nm of 0.35 units. This culture was dispensed into 96 well flat-bottomed mucrotitre plates containing compounds. Each well contained 20 μl compound dissolved in 10% (v/v) dimethylsulphoxide. 180 μl culture was added each well. The plates were sealed with Titertex plate sealers and incubated for 24 hours at 30° C.
(§3) (4) The plates were removed from the incubator, and shaken to resuspend the yeast. The platesealers were removed and […] reaction mix added to each well. An initial OD570 reading was taken immediately following this addition. After a further two hours a final OD570 reading was taken. Optical density readings were taken with a Molecular Devices platereader using Softmax software. The machine was set to automatically agitate the samples before taking the reading.
(§4) The reporter gene in the yeast strain MEY133::ACoAT is induced by a range of sterol biosynthesis inhibitor. FIGS. 2-10 present dose-responses to nine different sterol biosynthesis inhibitors. The measurements of reporter gene activity and growth were obtained using the standard procedure described above. Each point on the graph is the average of three measurements, standard deviations being indicated by the error bars. In the absence of sterol biosynthesis inhibitors, a basal activity of the reporter gene is observed. This corresponds to a change in OD570 of 0.23 units/two hours (average of 15 measurements). During the period of time of the incubation the yeast cells grow to a density of 0.86 OD570 units (average of 15 measurements).
(In general: Reporter assays use an easily measured gene product as a stand-in for the process of interest.)

For test [2] the test system is unchanged. The test is described as above. It counts as cell-based, S. cerevisiae.
The test system of test [3] is yeast strain MEY133::pACoAT. Description: Growth of reporter yeast strain (OD570). Type of test: cell-based, S. cerevisiae. The settings on record: OD570, 24 hours incubation. Here is the method: Reporter gene activity (OD570final−OD570initial) is indicated by solid squares. Growth (OD570 final) is indicated by open squares. Each point is the average of three measurements. Error bars indicate standard deviations.
as §1, §2, §3, §4

The next test deals with Squalene synthase. To be noted: S. cerevisiae, application of inhibitor; cited from earlier work.
Test [4] deals with lanosterol 14-a-demethylase gene induction. The settings on record: HMG1-deleted yeast; cited from earlier work.

In the case of `CCCCCCN1CCCC(Cc2ccc(C(C)(C)C)cc2)C1` (centres unmarked) [3-(4-t-butylbenzyl)-(N-hexyl)-piperidine], the “reporter gene activity response (in words)” value in test [1] (MEY133::pACoAT) is recorded as “very sharp”. Moreover, the “concentration above which reporter gene activity is induced” value in test [1] (MEY133::pACoAT, dose-response) is reported as “above 10 μg/ml”.
In the case of `CN(Cc1ccc(C(C)(C)C)cc1)Cc1cccc2ccccc12` [4-t-butyl-N-methyl-N-(I-naphthylmethyl)benzylamine], the “reporter gene induction compared with terbinafine” value is “to the same extent as terbinafine” in test [1] (at 100 μg/ml) and “much less active than terbinafine” in test [2] (at 10 μg/ml).
On to `Nc1nc(=O)[nH]cc1F` [5-flucytosine], for which the “reporter gene activity response (in words)” value in test [1] (MEY133::pACoAT) is given as “do not induce reporter gene activity”.
Take `CCC(C)(C)c1ccc(CC(C)CN2C[C@@H](C)O[C@@H](C)C2)cc1` (some centres unmarked) [Amorolfine]: the “concentration above which reporter gene activity is induced” value in test [1] (MEY133::pACoAT, dose-response) is “above 1 μg/ml”. For the same compound, the “growth inhibition (in words)” value in test [3] is on record as “some growth inhibitory properties”.
As for `CC(Cc1ccc(C(C)(C)C)cc1)CN1C[C@@H](C)O[C@@H](C)C1` (some centres unmarked) [Fenpropimorph], the “reporter gene activity response (in words)” value in test [1] (MEY133::pACoAT) was “induces reporter gene activity”. Also, the “growth inhibition (in words)” value in test [3] was “inhibiting growth to some extent”.
On to `OC(Cn1cncn1)(c1ccc(F)cc1)c1ccccc1F` (centres unmarked) [Flutriafol], for which, in test [1] (MEY133::pACoAT, dose-response), the “concentration at which detectable reporter gene induction occurs” value was 0.1 µg/mL. Also, in test [3], the “growth inhibition (in words)” value is “Some growth inhibition”.
As for `CC[C@H](C)C(=O)O[C@H]1C[C@@H](C)C=C2C=C[C@H](C)[C@H](CC[C@@H]3C[C@@H](O)CC(=O)O3)[C@H]21` [Lovastatin], the “concentration above which reporter gene activity is induced” value in test [1] (MEY133::pACoAT, dose-response) was “above 1 μg/ml”. Further, the “reporter gene induction per cell” value in test [1] was determined as 5 fold. Moreover, the “increase of squalene synthase levels” value in the test on Squalene synthase is on record as 2-3 fold.
Take `C=C(CC[C@]12O[C@H](C(=O)O)[C@@](O)(C(=O)O)[C@](C(=O)O)(O1)[C@H](OC(=O)/C=C/[C@@H](C)C[C@@H](C)CC)[C@H]2O)[C@@H](OC(C)=O)[C@H](C)Cc1ccccc1` [Squalestatin]: in test [1] (MEY133::pACoAT), the “reporter gene activity response (in words)” value is on record as “biphasic response”. The “concentration of maximal reporter gene induction” value in test [1] (MEY133::pACoAT, dose-response) came out at 10 µg/mL. Further, the “growth inhibition (in words)” value in test [3] is given as “growth inhibitory effect of squalestatin at higher concentrations”. In addition, the “reporter gene activity per cell, comparison of concentrations” value in test [2] (10 μg/ml versus 100 μg/ml) is recorded as “almost identical”.
With `CN(C/C=C/C#CC(C)(C)C)Cc1cccc2ccccc12` [Terbinafine], the “concentration above which reporter gene activity is induced” value in test [1] (MEY133::pACoAT, dose-response) is “above 1 μg/ml”. Moreover, the “reporter gene induction per cell” value in test [1] was determined as 9 fold. In addition, the “growth inhibition (in words)” value in test [3] is “inhibits growth to a limited extent”.
As to `C[C@@H]1[C@H](O)[C@@H](C)/C=C/C=C/C=C/C=C/C=C/C=C/C=C/[C@H](O[C@@H]2O[C@H](C)[C@@H](O)[C@H](N)[C@@H]2O)C[C@@H]2O[C@](O)(C[C@@H](O)C[C@@H](O)[C@H](O)CC[C@@H](O)C[C@@H](O)CC(=O)O[C@H]1C)C[C@H](O)[C@H]2C(=O)O` [amphotericin B], the “reporter gene activity response (in words)” value in test [1] (MEY133::pACoAT) is “do not induce reporter gene activity”.
On to `Cc1cccc(N(C)C(=S)Oc2ccc3ccccc3c2)c1` [tolnaftate], for which the “detection in Kirsch screen” value in test [4] is “not detected”.

Values taken from US6828092B1 (priority 1995, dated 2004).
